The values that follow come from US20230002352A1, “SULFONAMIDE DERIVATIVES AS CTPS1 INHIBITORS” (Step Pharma S.A.S., priority 2019, published 2023).

The target in experiment [1] is T1, human CTPS1 (Homo sapiens, UniProt P17812).
T1 construct: purchased Proteros biostructures GmbH
T1 sequence (P17812 1-591): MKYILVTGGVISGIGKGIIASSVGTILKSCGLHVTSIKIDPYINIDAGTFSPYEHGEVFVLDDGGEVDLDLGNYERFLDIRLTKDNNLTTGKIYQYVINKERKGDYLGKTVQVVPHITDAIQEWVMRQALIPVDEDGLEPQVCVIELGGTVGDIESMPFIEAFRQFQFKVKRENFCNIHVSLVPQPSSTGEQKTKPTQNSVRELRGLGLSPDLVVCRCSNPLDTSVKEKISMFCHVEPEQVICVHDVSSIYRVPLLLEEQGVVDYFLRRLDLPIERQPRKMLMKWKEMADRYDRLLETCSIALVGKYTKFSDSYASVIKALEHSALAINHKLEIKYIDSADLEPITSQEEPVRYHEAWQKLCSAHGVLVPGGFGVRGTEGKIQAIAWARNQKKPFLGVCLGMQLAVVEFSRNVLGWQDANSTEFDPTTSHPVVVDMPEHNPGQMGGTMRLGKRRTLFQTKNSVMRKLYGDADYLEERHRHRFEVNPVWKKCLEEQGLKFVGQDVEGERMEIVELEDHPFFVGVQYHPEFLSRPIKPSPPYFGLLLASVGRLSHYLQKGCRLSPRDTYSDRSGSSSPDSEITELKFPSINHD
The experiment in a line: Human CTPS1 enzyme inhibition (ADP-Glo Max assay). The format is biochemical. The settings on record: Table 25; compounds where R1 is substituted by CN; read-out: CTPS1 (Human CTPS1 Enzyme Inhibition data grouped by potency range, IC50). The gist of the method: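 Full-length FLAG-His-tagged human CTPS1 and compound were preincubated 10 min at 25 °C in 50 mM Tris pH 8.0, 10 mM MgCl2, 0.01% Tween-20, 2 mM L-cysteine. Substrate mix: ATP 0.31 mM, GTP 0.034 mM, UTP 0.48 mM, glutamine 0.186 mM; linear-phase reaction at 25 °C. ADP-Glo Max luminescence; IC50 from inhibition curve.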

The test system of experiment [2] is human CTPS1 versus CTPS2. The experiment in a line: Human CTPS1 versus CTPS2 selectivity assessment by RapidFire/MS analysis. The format is biochemical. Conditions: Table 28, compounds where R1 is substituted by CN. The gist of the method: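 Full-length human CTPS1 or CTPS2 was preincubated 10 min with compound in HEPES pH 8.0 at 25 °C. The 2× substrate mix was, for CTPS1, ATP 0.3, UTP 0.2, GTP 0.07 and glutamine 0.1 mM; for CTPS2, ATP 0.1, UTP 0.04, GTP 0.03 and glutamine 0.1 mM. The CTP/labelled-CTP ratio by RapidFire MS gave IC50, and selectivity was a fold ratio.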

As to `CCOc1cncc(-c2ccc(NC(=O)C3(c4ccnc(NS(=O)(=O)CC#N)n4)CCOCC3)nc2)n1` [Example P287, 4-(2-((cyanomethyl)sulfonamido)pyrimidin-4-yl)-N-(5-(6-ethoxypyrazin-2-yl)pyridin-2-yl)tetrahydro-2H-pyran-4-carboxamide], the IC50 in experiment [1] was at most 100 nM. Besides, the “CTPS1 (Selectivity data)” value in experiment [2] is listed as “+++ (>60 fold (+++))”.
